Assay results: patent publication US12290544B1, “Essential oil of stems and leaves of Chuzhou chrysanthemum and application thereof” (Chuzhou University, priority 2023, dated 2025)
Structures can show the parent of a compound that is named as a salt.

Legend:
Staphylococcus aureus = assay: Bacterial inhibition assay (filter paper, bacteriostatic ring); format: cell-based
Protocol: (§1) Cultured Escherichia coli and Staphylococcus aureus are diluted into […] colony forming units per milliliter (CFU/mL) bacterial solution respectively, and evenly spread on a potato dextrose agar (PDA) plate. After standing for 10 min, the filter paper with a diameter of 6 mm made by a punch is spread on the PDA plate, and 6 pieces are evenly placed in each plate. 10 μL of essential oil of stems and leaves of Chuzhou chrysanthemum with a concentration of 5 mg/mL is added with a pipette, and the culture dish is placed in a 37° C. incubator for culture. In the same way, the bacterial inhibition assay of the essential oil of the stems and leaves of Chuzhou chrysanthemum is carried out at the concentrations of 10, 20, 50, and 100 mg/mL. After 16 to 18 h of incubation, a diameter of a bacteriostatic ring (including the piece) is measured with a vernier caliper and recorded. When measuring the bacteriostatic ring, the bacteriostatic ring with uniform and completely sterile growth should be selected, and its diameter should be measured with an outer edge of the bacteriostatic ring as the boundary. Six parallel experiments are performed for each concentration, and the mean and standard deviation are calculated. Ethyl acetate is used as blank control, and streptomycin sulfate and ampicillin are used as positive controls.

Escherichia coli = assay: as above; format: cell-based
Protocol: as §1

[1] = positive control 500 ppm, read-out: Inhibitory rate
[2] = positive control 50 ppm, read-out: Inhibitory rate

Row | SMILES | Bacteriostatic ring diameter (Staphylococcus aureus; positive control 500 ppm) | inhibition at 500 ppm (Staphylococcus aureus; [1]) | Bacteriostatic ring diameter (Escherichia coli; positive control 500 ppm) | inhibition at 500 ppm (Escherichia coli; [1]) | Bacteriostatic ring diameter (Staphylococcus aureus; positive control 50 ppm) | inhibition at 50 ppm (Staphylococcus aureus; [2]) | Bacteriostatic ring diameter (Escherichia coli; positive control 50 ppm) | inhibition at 50 ppm (Escherichia coli; [2])
1 | [H]/N=C(/N)N[C@H]1[C@H](O)[C@@H](O)[C@H](O[C@@H]2O[C@@H](C)[C@](O)(C=O)[C@H]2O[C@@H]2O[C@@H](CO)[C@H](O)[C@@H](O)[C@@H]2NC)[C@@H](N/C(N)=N\[H])[C@@H]1O [Streptomycin sulfate] | 18.10 ± 0.48B mm | 57.3 ± 1.13% | 15.98 ± 0.43C mm | 51.6 ± 1.3% |  |  |  | 
2 | CC1(C)S[C@@H]2[C@H](NC(=O)[C@H](N)c3ccccc3)C(=O)N2[C@H]1C(=O)O [Ampicillin] |  |  |  |  | 16.58 ± 1.17C mm | 53.2 ± 3.03% | 17.12 ± 0.63B mm | 54.8 ± 1.66%
